# Experiments:
# Assay type in all cases: cell-based, rat
# [1] = tested on: neuronal cultures derived from DRG; experiment: CGRP release from DRG neuronal cultures (Example 1); conditions: for capsaicin-stimulated release of CGRP: 24 hours
# Method: (§1) Dorsal root ganglia (DRG) were dissected from all spinal levels of adult male (150-175 g) Sprague-Dawley rats (Envigo, Indianapolis, Ind.) and the cells were dissociated as previously described (Kelley et al., 2014). Briefly, the rats were euthanized by CO2 asphyxiation. DRGs were transferred into collagenase solution (1 mg/ml) and incubated for 1 hour at 37° C. The digested DRGs were then rinsed with growth medium, centrifuged and dissociated by mechanical agitation. Approximately 30,000 cells were plated into each well of 12-well culture plates. All culture dishes were precoated with poly-D-lysine and laminin. Cells were maintained in F-12 media supplemented with 10% horse serum, 2 mM glutamine, 100 μg/ml Normocin, 50 μg/ml penicillin, 50 μg/ml streptomycin, 50 μM 5-fluoro-2′-deoxyuridine, 150 μM uridine, and 30 ng/ml of NGF in 3% CO2 at 37° C. Growth medium was changed every other day.
# (§2) Small interfering RNAs to APE1 (APE1siRNA) and scrambled siRNA (SCsiRNA) controls were used to decrease APE1 protein expression in sensory neuronal cell cultures and as controls, respectively, as described previously (Vasko et al., 2005, Jiang et al., 2008a). On day 3 in culture, the growth media was replaced with 0.5 ml of Opti-MEM 1 media containing 100 nM of APE1siRNA (5′-[…]-3′ (SEQ ID NO:1)) or SCsiRNA (5′-[…]-3′(SEQ ID NO:2)); (Vasko et al., 2005)) and 10 μl of the transfecting reagent, Neuroporter. On the next day, 0.5 ml of the growth media without antibiotics was added to each well, and after an additional 24 hours the media containing siRNA was replaced with normal growth media.
# (§3) Lentiviral constructs containing (1) the CMV promoter, HA-tagged APE1, IRES, and enhanced green fluorescent protein (EGFP); or (2) CMV, IRES, and EGFP were developed. DNA sequencing confirmed the constructs in the pLenti6-R4R2-V5 plasmid containing WT-, C65-, or 226+177-APE1-IRES-EGFP. For lentiviral infections, DRG cells were cultured 5 days before 150 pfu/cell of the lentivirus was added to the media. Two days later, the virus was removed and the cells grown an additional 5 days in regular media.
# After neuronal cultures were treated with the appropriate drugs, the cultures were washed once with HEPES buffer consisting of (in mM) 25 HEPES, 135 NaCl, 3.5 KCl, 2.5 CaCl2, 1 MgCl2, 3.3 D-glucose, and 0.1% bovine serum albumin, pH 7.4 and maintained at 37° C. They were then incubated for successive 10-minute intervals with 0.4 ml of HEPES buffer alone (basal release), with buffer containing 30 nM capsaicin, then with buffer alone (to assess return to basal release). After each incubation, the buffer was removed and the amount of immunoreactive CGRP in each sample was measured using radioimmunoassay as previously described (Chen et al., 1996). After the release experiment, the cells in each well were in 0.4 ml of 0.1 M HCl10 minutes and an aliquot taken to measure total CGRP content in the cultures using radioimmunoassay. Total content (fmol/well) was calculated by adding the total amount released in all incubations to the amount measured in the cells. The release data is calculated as fmol released/well/10 minutes.
# [2] = tested on: neuronal cultures derived from DRG; experiment: pH2A.X immunoblotting in DRG neuronal cultures (Example 1)
# Method: as §1, §2, §3
# Tissues or cells were harvested, lysed in RIPA buffer (Santa Cruz Biotechnology; Santa Cruz, Calif., USA), sonicated, and cleared of cellular debris by centrifuging at 4000 RPM for 2 minutes. Protein was quantified using Lowry assay, and electrophoresed in a 12% SDS-polyacrylamide gel. After electrophoresis, proteins were transferred to a PVDF membrane, and blocked with Tris-buffered saline containing 0.1% Tween-20 (TBST) and 5% nonfat dry milk for 1 hour at room temperature while gently agitating. Mouse monoclonal antihuman Ape1 antibodies (1:1000), mouse monoclonal anti-phospho H2AX antibodies (1:1000), mouse monoclonal anti-vinculin antibody (1:1000), and anti-Hemagglutinin (HA) antibody were added to the blocking solution and incubated for 2 hours at room temperature while gently agitating. Antibody binding was detected following appropriate secondary antibody methods using chemiluminescence. The density of the bands was measured using Quantity One software from Bio-Rad (Hercules, Calif.) and data expressed as density normalized to vinculin.
# [3] = tested on: sensory neuronal cultures; experiment: phospho-H2AX immunoblotting in sensory neuronal cultures (Example 3); conditions: 10 μM cisplatin for 24 or 48 hours
# Method: Primary cultures of sensory neurons were harvested and maintained as previously described (Vasko et al., 2005). Briefly, adult male Sprague-Dawley rats (150-175 g; Harlan, Indianapolis, Ind.) were euthanized by CO2 asphyxiation and dorsal root ganglia (DRG) dissected from all spinal levels, transferred to into a collagenase solution (1 mg/ml), incubated for 1 hour at 37° C., then dissociated by mechanical agitation. Approximately 30,000 cells or 60,000 cells were plated into each well of 12-well or 6-well culture plates, respectively. All culture dishes were precoated with poly-D-lysine and laminin. Cells were maintained in F-12 media supplemented with 10% horse serum, 2 mM glutamine, 100 μg/ml Normocin™, 50 μg/ml penicillin, 50 μg/ml streptomycin, 50 μM 5-fluoro-2′-deoxyuridine (Invitrogen), 150 μM uridine, and 30 ng/ml of NGF in 3% CO2 at 37° C. Growth medium was changed every other day. Experiments were performed after cells were maintained in culture for 12-14 days.
# Immunoblotting was performed as previously described (Kelley et al., 2014). Briefly, cells were lysed in RIPA buffer (Santa Cruz Biotechnology; Santa Cruz, Calif., USA) and protein was quantified using the Lowey assay. Proteins were separated by electrophoresis on a 4-12% SDS-polyacrylamide gel. The gel was transferred to a PVDF membrane and incubated overnight at 4° C. in Tris-buffered saline containing 0.1% Tween-20 (TBST) and 5% nonfat dry milk while gently agitating. Mouse monoclonal antihuman Ape1 antibodies (1:500), mouse monoclonal anti-phospho H2AX antibodies (1:1000), or (3-Actin monoclonal antibody (1:1000) were added to the blocking solution and incubated overnight at room temperature while gently agitating. Antibody binding was detected following appropriate secondary antibody methods using chemiluminescence. The density of the bands was measured using QUALITYONE® software from Bio-Rad (Hercules, Calif.) and data expressed as density normalized to actin.
molecule,measurement,setting,value
MCP-1: Recombinant rat CCL2/MCP-1 protein,CGRP release relative to the release in the absence of MCP-1,"[1]; 0.3 μg/ml MCP-1, 24 hours",142.8%
same,capsaicin-stimulated release of CGRP,[1]; 0.3 μg/ml,13.0±0.8 % of total content
same,capsaicin-stimulated release of CGRP,[1]; 1.0 μg/ml,15.0±1.0 % of total content
same,capsaicin-stimulated release of CGRP,[1]; 10.0 μg/ml,6.3±1.0 % of total content
same,release of CGRP stimulated by capsaicin,"[1]; APE1siRNA-treated cultures, MCP-1 0.3 μg/ml",caused a decrease in CGRP release
same,release of CGRP stimulated by capsaicin,"[1]; SCsiRNA-treated cultures, MCP-1 0.3 μg/ml",enhanced the release of CGRP
same,total content of CGRP compared with vehicle,[1]; data not shown,similar
same,levels of pH2A.X over time,"[2]; LPS 1 μg/ml, MCP-1 100 ng/ml",induced pH2A.X expression
same,onset of pH2A.X increase,"[2]; LPS 1 μg/ml, MCP-1 100 ng/ml",16 hours
same,peak of pH2A.X increase,"[2]; LPS 1 μg/ml, MCP-1 100 ng/ml",24 hours
same,pH2A.X expression,"[2]; SCsiRNA-treated cultures, 24 hours, LPS 3 μg/ml, MCP-1 0.3 μg/ml",enhanced expression of pH2A.X
Cc1ccc2c(c1)C1(CCN(CCc3nc(-c4ccccc4)oc3C)CC1)OC(=O)N2 [RS 50493],effect on MCP-1-induced augmentation of CGRP release,"[1]; 0.3 μg/ml MCP-1, RS 50493 1 μM",prevented
same,effect on LPS-induced decrease in CGRP release,"[1]; 3.0 μg/ml LPS, LPS-RS 2 μg/ml, RS 50493 1 μM",blocked the decrease in release induced by LPS
same,pH2A.X expression relative to the expression elicited by MCP-1 alone,"[2]; 0.3 μg/ml MCP-1 24 hr, RS 50493 1 μM",8.5%
same,reduction of LPS-induced increase in pH2A.X expression,"[2]; 3.0 μg/ml LPS 24 hr, LPS-RS 2 μg/ml, RS 50493 1 μM, from 1 hour prior",92.5 % reduction
COc1cc(CNC(=O)CCCC/C=C/C(C)C)ccc1O [capsaicin],release of CGRP stimulated by capsaicin,"[1]; 30 nM capsaicin, 10-minute period, no inflammatory mediator",approximately 10 % of the total content
"N.N.[Cl][Pt][Cl] [cisplatin, reference compound]",levels of pH2AX,[3],significant increase in the levels of pH2AX

# — patent publication US11351130B2, “Prevention and reversal of inflammation induced DNA damage” (Indiana University Research and Technology Corporation, priority 2017, dated 2022)
